According to patent publication US20260069584A1, “METHODS OF TREATING CHRONIC MYELOID LEUKEMIA USING THE TYROSINE KINASE INHIBITOR VODOBATINIB” (Sun Pharma Advanced Research Company Ltd., priority 2022, published 2026):

Test system: CP CML
Assay: Part B: disease response in CP CML subjects
Format: in vivo, human
Conditions: for Complete Molecular Response, Best Response / Complete cytogenetic response, Best Response / Cytogenetic response: Minimal response, Best Response / Cytogenetic response: Minor response, Best Response / Cytogenetic response: No response, Best Response / Hematological response: CHR, Best Response / Hematological response: No response, Best Response / Major cytogenetic response, Best Response / Major molecular response, Best Response / Molecular response: No response, Best Response / Partial cytogenetic response, Best Response: number of patients
Excerpt: This was a Phase I/2, open-label, single-agent, multicenter, multi-dose, dose-escalation study in subjects with Philadelphia chromosome-positive Ph+ CML (CP CML, AP CML and BP CML) and Ph+ ALL. The primary objectives of this study were to determine the maximum tolerated dose (MTD; or recommended Phase 2 dose [RP2D]) of the compound of Formula I when administered orally and to evaluate its safety.
In this study, the dose-escalation cohort started with an accelerated titration study design (ATD) and shifted to a 3±3 design when subjects in the preceding ATD cohort experienced either grade 2 or higher adverse events (AEs) or dose-limiting toxicity (DLT) during Cycle 1 that was not clearly and incontrovertibly related to the underlying disease or concomitant medications. The DLT period consisted of 28 days (Cycle 1). Subjects experiencing DLTs were managed with dose delays and/or discontinuation and continued in the study until disease progression. Decisions to advance to a succeeding dose level occurred after the evaluation of safety and tolerability data for a given dose level.
Accordingly, the eligible subjects were treated in 4-week cycles of once daily self-administration of the compound of Formula I. The administration was after an overnight fast, or after maintaining approximately 2 hours of fasting before and after the dosing in all cycles.
For the cohorts, where the 3±3 design applies, 3 subjects were enrolled initially. If 2 of these subjects experienced a Grade 2 or more toxicity (that was not clearly and incontrovertibly related to the underlying disease or concomitant medications), subsequent cohorts were escalated according to smaller increments. Further, if there were no DLTs in the first 3 subjects, dose escalation to the next higher dose level was allowed to proceed. If 1 of the 3 subjects experienced a DLT, that dose level was expanded to 6 subjects (3 additional subjects were enrolled). If 2 subjects at a given dose level experienced a DLT, the MTD was considered to have been exceeded. The next lower dose level was expanded to 6 subjects, or if 6 subjects had already been enrolled and no more than 1 of the 6 subjects experienced a DLT, then this lower dose level was considered the MTD. Additional subjects were enrolled in dose escalation cohorts for further assessment of safety and efficacy of the compound of Formula 1 at doses that were tolerated (i.e., doses that have <2 DLTs in 6 enrolled subjects or <1 DLT in 3 enrolled subjects). Thus 204 mg was arrived at as MTD. A subject experiencing a DLT was allowed to continue therapy with a reduced dose. Subjects who experienced a DLT and recovered were treated at the next lower dose level until disease progression or other events requiring further dose reduction existed. For cohorts at Dose Level 2 or higher, a further dose reduction (i.e., up to 2 levels lower than their originally assigned dose) was implemented in the case of a further DLT or other non-DLT events requiring a dose reduction, if and when the event leading to dose reduction returned to Grade 1 or lower in severity. The reduced dose was re-escalated to the original or higher dose (i.e., the dose for which safety had been established in the dose escalation cohort) considering subject safety and response to the compound of Formula I. The subject was discontinued from treatment using the compound of Formula I, if dose reduction below 48 mg was required.
The study was conducted over a period of 60 months (5 years) which was divided in 28-days cycle. In the first two cycles, the dose administration was started on day 1 and the subject's assessments were performed on day 1, day 2, day 3, day 8, day 15 and day 22. From Cycle 3 onwards, the assessments were performed every 3 months (i.e., on day 28 of Cycle 3, followed by day 28 of Cycle 6 which was further followed by day 28 of Cycle 9). […]

[1] = 16 CP CML patients with prior ponatinib
[2] = prior ponatinib, 48 mg (N = 1) ESC
[3] = prior ponatinib, 66 mg (N = 2) ESC
[4] = prior ponatinib, 90 mg (N = 2) ESC
[5] = prior ponatinib, 126 mg (N = 1) ESC
[6] = prior ponatinib, 174 mg (N = 5) ESC
[7] = prior ponatinib, 204 mg (N = 3) ESC
[8] = prior ponatinib, 240 mg (N = 2) ESC

Cc1ccc(C(=O)NNC(=O)c2c(C)cccc2Cl)cc1C#Cc1cnc2ccccc2c1 [compound of Formula I, N′-(2-chloro-6-methylbenzoyl)-4-methyl-3-[2-(3-quinolyl)ethynyl]-benzohydrazide]
Best Hematologic Response: No Response (204 mg (N = 6) ESC): 0 | Best Molecular Response: Complete Response (204 mg (N = 6) ESC): 1(16.7) | Best Molecular Response: Major Response (204 mg (N = 6) ESC): 3(50.0) | Best Molecular Response: No Response (204 mg (N = 6) ESC): 3(50.0) | Best Cytogenetic Response: Complete Response (240 mg (N = 3) ESC): 3(100) | Best Cytogenetic Response: Major Cytogenetic Response (240 mg (N = 3) ESC): 3(100) | Best Cytogenetic Response: Minimal Response (240 mg (N = 3) ESC): 0 | Best Cytogenetic Response: Minor Response (240 mg (N = 3) ESC): 0 | Best Cytogenetic Response: No Response (240 mg (N = 3) ESC): 0 | Best Cytogenetic Response: Partial Response (240 mg (N = 3) ESC): 0 | Best Hematologic Response: Complete Response (240 mg (N = 3) ESC): 2(66.7) | Best Hematologic Response: Major Hematologic Response (240 mg (N = 3) ESC): 2(66.7) | Best Hematologic Response: No Evidence of Leukemia (240 mg (N = 3) ESC): 0 | Best Hematologic Response: No Response (240 mg (N = 3) ESC): 0 | Best Molecular Response: Complete Response (240 mg (N = 3) ESC): 1(33.3) | Best Molecular Response: Major Response (240 mg (N = 3) ESC): 3(100) | Best Molecular Response: No Response (240 mg (N = 3) ESC): 0 | MMR achieved (8 patients out of 17, prior ponatinib): 47% | Major Cytogenetic Response (MCyR, both PCyR+ CCyR) (11 of 16 CP CML patients with prior ponatinib): 68.8% | Achieved MCyR [1]: 6 patients | Maintained MCyR [1]: 5 patients | Complete Molecular Response, Best Response (ASC (N = 3)): 0 | Complete cytogenetic response, Best Response (ASC (N = 3)): 1 | Cytogenetic response: Minimal response, Best Response (ASC (N = 3)): 0 | Cytogenetic response: Minor response, Best Response (ASC (N = 3)): 1 | Cytogenetic response: No response, Best Response (ASC (N = 3)): 1 | Hematological response: CHR, Best Response (ASC (N = 3)): 3 | Hematological response: No response, Best Response (ASC (N = 3)): 0 | Major cytogenetic response, Best Response (ASC (N = 3)): 1 | Major molecular response, Best Response (ASC (N = 3)): 0 | Molecular response: No response, Best Response (ASC (N = 3)): 3 | Partial cytogenetic response, Best Response (ASC (N = 3)): 0 | Complete Molecular Response, Best Response (PON (N = 15)): 4 | Complete cytogenetic response, Best Response (PON (N = 15)): 7 | Cytogenetic response: Minimal response, Best Response (PON (N = 15)): 1 | Cytogenetic response: Minor response, Best Response (PON (N = 15)): 1 | Cytogenetic response: No response, Best Response (PON (N = 15)): 2 | Hematological response: CHR, Best Response (PON (N = 15)): 12 | Hematological response: No response, Best Response (PON (N = 15)): 3 | Major cytogenetic response, Best Response (PON (N = 15)): 10 | Major molecular response, Best Response (PON (N = 15)): 8 | Molecular response: No response, Best Response (PON (N = 15)): 7 | Partial cytogenetic response, Best Response (PON (N = 15)): 3 | Best Cytogenetic Response: Complete Response (Total (N = 30) ESC): 17(56.7) | Best Cytogenetic Response: Major Cytogenetic Response (Total (N = 30) ESC): 20(66.7) | Best Cytogenetic Response: Minimal Response (Total (N = 30) ESC): 4(13.3) | Best Cytogenetic Response: Minor Response (Total (N = 30) ESC): 1(3.3) | Best Cytogenetic Response: No Response (Total (N = 30) ESC): 3(10.0) | Best Cytogenetic Response: Partial Response (Total (N = 30) ESC): 3(10.0) | Best Hematologic Response: Complete Response (Total (N = 30) ESC): 24(80.0) | Best Hematologic Response: Major Hematologic Response (Total (N = 30) ESC): 24(80.0) | Best Hematologic Response: No Evidence of Leukemia (Total (N = 30) ESC): 0 | Best Hematologic Response: No Response (Total (N = 30) ESC): 4(13.3) | Best Molecular Response: Complete Response (Total (N = 30) ESC): 7(23.3) | Best Molecular Response: Major Response (Total (N = 30) ESC): 14(46.7) | Best Molecular Response: No Response (Total (N = 30) ESC): 14(46.7) | CCyR as best response (more than 3 prior TKIs including ponatinib): 46.7% | CCyR as best response (more than 3 prior TKIs including ponatinib and asciminib): 33.3% | Major cytogenetic response as best response (ponatinib group): 66.7% | Major cytogenetic response as best response (ponatinib plus asciminib group): 33.3% | Achieved MCyR [2]: 0 | Achieved MMR [2]: 1(100) | MCyR [2]: 1(100) | Maintained MCyR [2]: 1(100) | Maintained MMR [2]: 0 | Achieved MCyR [3]: 1(50.0) | Achieved MMR [3]: 0 | MCyR [3]: 1(50.0) | Maintained MCyR [3]: 0 | Maintained MMR [3]: 0 | Achieved MCyR [4]: 1(50.0) | Achieved MMR [4]: 1(50.0) | MCyR [4]: 1(50.0) | Maintained MCyR [4]: 0 | Maintained MMR [4]: 0 | Achieved MCyR [5]: 0 | Achieved MMR [5]: 0 | MCyR [5]: 0 | Maintained MCyR [5]: 0 | Maintained MMR [5]: 0 | Achieved MCyR [6]: 1(20.0) | Achieved MMR [6]: 3(60.0) | MCyR [6]: 3(60.0) | Maintained MCyR [6]: 2(40.0) | Maintained MMR [6]: 0 | Achieved MCyR [7]: 2(66.7) | Achieved MMR [7]: 1(33.3) | MCyR [7]: 3(100) | Maintained MCyR [7]: 1(33.3) | Maintained MMR [7]: 0 | Achieved MCyR [8]: 1(50.0) | Achieved MMR [8]: 2(100) | MCyR [8]: 2(100) | Maintained MCyR [8]: 1(50.0) | Maintained MMR [8]: 0 | Achieved MCyR (prior ponatinib, Total ESC): 6(37.5) | Achieved MMR (prior ponatinib, Total ESC): 8(50.0) | MCyR (prior ponatinib, Total ESC): 11(68.8) | Maintained MCyR (prior ponatinib, Total ESC): 5(31.3) | Maintained MMR (prior ponatinib, Total ESC): 0
